Each block holds one compound with its values, some of them ahead of it.
Tests used:
bone marrow derived DCs = experiment: IL-1β release from DCs (ELISA); assay type: cell-based, mouse; settings: for IL-1β release: LPS-primed DCs
Method: NLRP3 KO and ASC KO mice were kindly provided by Dr. T. Horng, Harvard School of Public Health. Caspase-11 KO mice were kindly provided by Dr. Junying Yuan, Harvard Medical School. Caspase-1 single KO mice were kindly provided by Thirumala-Devi Kanneganti (St. Judes). DCs were differentiated from bone marrow in IMDM (Gibco), 10% B16-GM-CSF derived supernatant, 2 μM 2-mercaptoethanol and 10% FBS and used after 6 day of culture. […] MO were differentiated from bone marrow in DMEM (Gibco), 30% L929 supernatant, and 10% FBS. Immortal MΦs were cultured in DMEM supplemented with 10% L929 supernatant and 10% FBS. […] For experiments using pan-caspase inhibitor, cells were treated with zVADfmk (20 μM) 30 min before inflammasome activation stimuli addition. Cycloheximide (50 ng/ml) was added at the time of stimuli administration. Transfection with DOTAP was performed following the manufacturer instructions. […] 30 min later, the DOTAP/LPS or DOTAP/oxPAPC complex were added to the culture.
(§1) RNA was isolated from cell cultures using Qiashedder (Qiagen) and GeneJET RNA Purification Kit (Life Technologies). Purified RNA was analyzed for gene expression on a CFX384 real time cycler (Bio-rad) using TaqMan RNA-to-CT 1-Step Kit (Applied Biosystems) with probes purchased from Life Technologies specific for viperin (Mm00491265_m1), IFNb1 (Mm00439552_s1), IL6 (Mm00446190_m1), caspase-1 (Mm00438023_m1), caspase-11 (Mm00432307_m1), Nlrp3 (Mm00840904_m1), Asc (Mm00445747_g1), TBP (Mm00446971_m1) or GAPDH (Mm99999915_g1). ELISA for IL-1β, IL-2, IL-17, IL-18, TNFα and IFNγ were performed using Mouse Ready-SET-Go ELISA kits (eBioscience). To measure secreted cytokines, supernatant were collected, clarified by centrifugation and stored at −20° C. Cell associated cytokines were measured as follows: 96-well plates were centrifuged and supernatant was discarded. 250 μl of PBS were added to each well. Cells were frozen and thawed two times at −80° C. and then stored at −20° C. for further analysis.

[1] = molecular target: T1, catalytic mutant caspase-11 full length (C254A) (Mus musculus, UniProt P70343, C254A); experiment: SPR analysis of lipid binding to immobilized full length caspase-11 (C254A)
T1 construct: recombinant catalytic mutant caspase-11 full length (C254A); His; made in house; host or cells: SF-21 insect cells (baculovirus)
T1 sequence (P70343 81-373 C254A): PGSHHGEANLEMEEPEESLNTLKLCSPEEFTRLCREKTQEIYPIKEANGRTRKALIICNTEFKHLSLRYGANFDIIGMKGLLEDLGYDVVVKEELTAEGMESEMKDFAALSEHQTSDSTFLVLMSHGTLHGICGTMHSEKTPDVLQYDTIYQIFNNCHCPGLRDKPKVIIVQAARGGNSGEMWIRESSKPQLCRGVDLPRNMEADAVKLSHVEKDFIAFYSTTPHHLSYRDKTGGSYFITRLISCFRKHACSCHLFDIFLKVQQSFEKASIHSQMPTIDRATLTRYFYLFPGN
Method: For studies to measure the direct binding of oxPAPC to caspase-11, proteins and SPR analysis was performed as described (Shi, J., et al., (2014b) Nature). Briefly, the recombinant catalytic mutant caspase-11 full length (C254A) and caspase-11 ΔN59 (C254A) were purified from P3 baculovirus infected SF-21 insect cells that were cultured in Sf900™ II SFM for 72 h at 28° C. Cells were lysed in lysis buffer containing 1% Triton X-100, 50 mM Tris-HCl (pH 7.6), 300 mM NaCl, 50 mM imidazole and 5 mM 2-mercaptoethanol. Ni-NTA beads (Qiagen) were used to purify His-tagged proteins from lysates. Proteins were released from the beads with elution buffer containing 50 mM Tris-HCl (pH 7.6), 250 mM imidazole and 300 mM NaCl. Imidazole was removed by dialysis. The proteins were further purified with HiTrap Q column and Superdex G200 column (GE Healthcare Life Sciences) to reach high homogeneity.
For surface plasmon resonance (SPR) analysis, BIAcore T100 SPR instrument (GE Healthcare) was used to measure the ligand binding kinetics. The assays were performed in a buffer containing 150 mM NaCl, 3 mM EDTA, 50 mM HEPES (pH 7.5) and 0.005% Tween-20 at 25° C. […] The KD values were calculated by fitting result curves (subtracted the control flow cell value) to a 1:1 Langmuir binding model with the BIAcore T100 evaluation software.

DCs = experiment: TNFα secretion from DCs (ELISA); assay type: cell-based, mouse; settings: LPS-primed DCs
From the text: C57BL/6J (Jax 000664), C57BL/6NJ (Jax 005304), CD14 KO (Jax 003726), caspase-1/-11 dKO mice (Jax 016621), TLR4-mutant (C3H/HeJ, Jax 000659), and wild-type control for TLR4-mutant (C3H/HeSNJ, Jax 000661) were purchased from Jackson Labs. NLRP3 KO and ASC KO mice were kindly provided by Dr. T. Horng, Harvard School of Public Health. Caspase-11 KO mice were kindly provided by Dr. Junying Yuan, Harvard Medical School. Caspase-1 single KO mice were kindly provided by Thirumala-Devi Kanneganti (St. Judes). DCs were differentiated from bone marrow in IMDM (Gibco), 10% B16-GM-CSF derived supernatant, 2 μM 2-mercaptoethanol and 10% FBS and used after 6 day of culture. DC purity was assessed by flow cytometry and was usually higher than 90%. MO were differentiated from bone marrow in DMEM (Gibco), 30% L929 supernatant, and 10% FBS. Immortal MΦs were cultured in DMEM supplemented with 10% L929 supernatant and 10% FBS. Splenic DCs were purified as described previously (Zanoni et al., 2012). Prior to stimulations, cultured cells were washed and re-plated in DMEM supplemented with 10% FBS at a concentration of 1×10^6 cells/ml in a final volume of 100 μl. For experiments using pan-caspase inhibitor, cells were treated with zVADfmk (20 μM) 30 min before inflammasome activation stimuli addition. […]
as §1, with “To measure secreted cytokines, supernatant were collected, clarified by centrifugation and stored at −20° C.” left out, “250 μl of PBS were added to each well. Cells were frozen and thawed two times at −80° C. and then stored at −20° C. for further analysis.” left out

inflammasome in DCs = experiment: Inflammasome activation (FIGS. 6-42); assay type: cell-based
CD14 = molecular target: T2, CD14 (Mus musculus, UniProt P10810); experiment: CD14 endocytosis (surface staining, flow cytometry); assay type: cell-based; settings: protein synthesis blocked with cycloheximide
T2 construct: endogenous in cells; host or cells: iMΦ, primary bone marrow derived MΦ and DCs
T2 sequence (P10810 16-336 limits assumed): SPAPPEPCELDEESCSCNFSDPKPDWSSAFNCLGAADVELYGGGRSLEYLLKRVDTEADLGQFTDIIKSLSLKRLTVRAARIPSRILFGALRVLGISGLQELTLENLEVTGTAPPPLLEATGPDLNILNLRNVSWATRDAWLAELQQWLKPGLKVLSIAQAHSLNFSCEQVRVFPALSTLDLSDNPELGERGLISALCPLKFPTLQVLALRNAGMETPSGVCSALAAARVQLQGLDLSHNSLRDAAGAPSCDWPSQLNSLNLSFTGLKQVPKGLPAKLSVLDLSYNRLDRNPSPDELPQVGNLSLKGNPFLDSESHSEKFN
Method: (§2) primary bone marrow derived MΦs and DCs or splenic DCs (0.5×10^6) of the indicated genotypes were treated with E. coli LPS, oxPAPC or chemical inhibitors for the indicated time points at 37° C. Cells were then washed with 1 mL cold PBS and stained for appropriate antibodies on ice for 20 to 30 minutes. 2% mouse serum or rat serum were used as the blocking reagent to reduce non-specific binding of the antibodies. The stained cells were then washed with 1 mL cold PBS and resuspended in 200 μL PBS. Staining of the surface receptors was analyzed with BD FACSCanto II. The mean fluorescence intensity (MFI) of CD14, TLR4 from unstimulated or stimulated cells was recorded. The percentage of surface receptor staining at indicated time points, which is the ratio of the MFI values measured from the stimulated cells to those measured from the unstimulated cells, was plotted to reflect the efficiency of receptor endocytosis. For measuring the extent of TLR4/MD-2 dimerization, the percentage of TLR4/MD2 dimer was calculated by 100%−the percentage of TLR4/MD-2 monomer. The percentage of the TLR4/MD-2 monomer was determined by the ratio of the MFI values (obtained from MTS510 antibody staining) of the stimulated cells to those of the unstimulated cells were indicated. Cells were stained with anti-MHC class II or anti-CD40 antibodies.

TLR4 = molecular target: T3, TLR4 (Mus musculus, UniProt Q9JHF9+Q9QUK6); experiment: TLR4 endocytosis (surface staining, flow cytometry); assay type: cell-based; settings: cycloheximide treatment
T3 construct: endogenous in cells; host or cells: iMΦ, primary bone marrow derived MΦ and DCs
T3 sequence (Q9QUK6 26-835): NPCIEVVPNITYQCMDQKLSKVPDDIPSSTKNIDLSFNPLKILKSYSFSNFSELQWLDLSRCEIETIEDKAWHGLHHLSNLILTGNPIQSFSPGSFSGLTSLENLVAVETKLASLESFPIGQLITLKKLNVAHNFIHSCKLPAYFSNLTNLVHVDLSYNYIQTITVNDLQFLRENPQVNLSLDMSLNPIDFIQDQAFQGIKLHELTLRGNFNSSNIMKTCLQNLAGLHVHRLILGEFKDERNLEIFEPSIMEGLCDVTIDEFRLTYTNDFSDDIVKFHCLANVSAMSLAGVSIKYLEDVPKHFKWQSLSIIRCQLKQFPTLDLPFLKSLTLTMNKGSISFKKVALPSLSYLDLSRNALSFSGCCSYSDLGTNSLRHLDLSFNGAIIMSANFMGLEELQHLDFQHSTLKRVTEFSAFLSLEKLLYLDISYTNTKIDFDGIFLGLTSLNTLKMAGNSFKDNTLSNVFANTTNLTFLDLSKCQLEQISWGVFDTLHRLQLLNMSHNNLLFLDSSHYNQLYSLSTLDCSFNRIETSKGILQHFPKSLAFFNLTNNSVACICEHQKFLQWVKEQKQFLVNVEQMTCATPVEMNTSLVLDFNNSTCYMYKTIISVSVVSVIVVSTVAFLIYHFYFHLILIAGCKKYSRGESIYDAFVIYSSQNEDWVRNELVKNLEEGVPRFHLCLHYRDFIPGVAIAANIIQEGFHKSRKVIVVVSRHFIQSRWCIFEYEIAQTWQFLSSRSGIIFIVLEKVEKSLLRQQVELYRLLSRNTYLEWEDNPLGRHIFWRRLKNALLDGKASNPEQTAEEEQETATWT
T3 sequence (Q9JHF9 19-160): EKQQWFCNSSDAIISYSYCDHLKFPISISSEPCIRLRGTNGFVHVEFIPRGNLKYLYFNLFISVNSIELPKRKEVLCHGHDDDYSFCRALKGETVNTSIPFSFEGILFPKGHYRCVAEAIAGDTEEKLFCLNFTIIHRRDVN
Method: as §2

binding to immobilized caspase-11(C254A) on SPR [1]: did not bind detectably
SMILES: CCCCCCCCCCCCCC(=O)OC[C@H](COP(=O)([O-])OCC[N+](C)(C)C)OC(=O)CCCCCCCCCCCCC [DMPC, 1,2-dimyristoyl-sn-glycero-3-phosphocholine]
IL-1β release (bone marrow derived DCs): unable to elicit IL-1β release
TNFα release (DCs): not affected

SMILES: CCCCCCCCCCCCCCCC(=O)OC[C@H](COP(=O)([O-])OCC[N+](C)(C)C)OC(=O)CCCC(=O)/C=C/C(=O)O [KOdiA-PC, 1-(Palmitoyl)-2-(5-keto-6-octene-dioyl) phosphatidylcholine]
IL-1β release (bone marrow derived DCs): able to elicit IL-1β secretion
inflammasome activation (inflammasome in DCs): activated the inflammasome in DCs
TNFα release (DCs): not affected

SMILES: CCN(CC)CCCC(C)Nc1ccnc2cc(Cl)ccc12 (stereo not drawn) [chloroquine]
IL-1β release from DCs (bone marrow derived DCs; chloroquine pre-treatment, LPS-primed, oxPAPC-treated): promoted slightly more release of IL-1β

SMILES: C[C@@H]1C[C@@H]([C@H](O)CC2CC(=O)NC(=O)C2)C(=O)[C@@H](C)C1 [cycloheximide]
extent of oxPAPC- or LPS-induced CD14 endocytosis (CD14): enhanced
TLR4 internalization or dimerization (TLR4): did not affect

— patent publication US12053522B2, “Pro-inflammatory and anti-cancer functions of toll-like receptor 4 antagonists” (Children's Medical Center Corporation, priority 2015, dated 2024)
